Measurements: ChEMBL document CHEMBL1140446, “Designed multiple ligands. An emerging drug discovery paradigm” (J Med Chem, 2005)

How the values were obtained:
[1] = biological target: T1, Sodium-dependent serotonin transporter (Homo sapiens, UniProt P31645)
Description: Inhibitory concentration against serotonin transporter

[2] = biological target: T2, 5-hydroxytryptamine receptor 1A (Homo sapiens, UniProt P08908)
T2 sequence (P08908 whole entry): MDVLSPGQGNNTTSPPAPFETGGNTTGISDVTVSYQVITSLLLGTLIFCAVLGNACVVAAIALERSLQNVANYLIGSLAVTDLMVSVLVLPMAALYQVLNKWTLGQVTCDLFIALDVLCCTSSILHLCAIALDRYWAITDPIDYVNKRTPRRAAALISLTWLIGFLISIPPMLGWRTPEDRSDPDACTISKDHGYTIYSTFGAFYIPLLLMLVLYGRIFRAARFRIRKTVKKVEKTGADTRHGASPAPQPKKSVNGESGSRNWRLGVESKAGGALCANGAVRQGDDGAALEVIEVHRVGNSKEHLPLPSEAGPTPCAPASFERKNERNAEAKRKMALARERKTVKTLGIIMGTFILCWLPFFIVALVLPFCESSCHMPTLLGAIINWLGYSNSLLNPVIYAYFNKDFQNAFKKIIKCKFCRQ
Description: Inhibition constant against 5-hydroxytryptamine 1A receptor

[3] = biological target: T3, Polyunsaturated fatty acid 5-lipoxygenase (Homo sapiens, UniProt P09917)
T3 sequence (P09917 whole entry): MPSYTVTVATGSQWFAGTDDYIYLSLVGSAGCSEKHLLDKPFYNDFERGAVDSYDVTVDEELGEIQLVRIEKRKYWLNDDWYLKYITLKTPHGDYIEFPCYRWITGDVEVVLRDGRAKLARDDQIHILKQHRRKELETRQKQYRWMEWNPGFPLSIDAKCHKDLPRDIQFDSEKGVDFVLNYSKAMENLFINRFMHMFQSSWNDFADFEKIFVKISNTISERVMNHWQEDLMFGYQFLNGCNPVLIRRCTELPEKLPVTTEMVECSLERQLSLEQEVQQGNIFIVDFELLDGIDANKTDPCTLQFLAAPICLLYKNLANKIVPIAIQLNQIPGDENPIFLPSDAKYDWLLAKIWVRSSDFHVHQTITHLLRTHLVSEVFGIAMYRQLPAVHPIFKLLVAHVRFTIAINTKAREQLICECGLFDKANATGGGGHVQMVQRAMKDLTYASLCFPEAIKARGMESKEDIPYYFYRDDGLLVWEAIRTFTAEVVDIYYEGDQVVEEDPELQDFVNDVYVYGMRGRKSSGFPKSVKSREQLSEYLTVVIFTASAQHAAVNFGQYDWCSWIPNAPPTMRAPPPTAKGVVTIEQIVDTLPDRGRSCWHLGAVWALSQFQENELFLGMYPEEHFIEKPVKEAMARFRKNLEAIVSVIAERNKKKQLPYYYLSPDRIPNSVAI

[4] = biological target: T1, Sodium-dependent serotonin transporter; remark: listed apart in the source
Description: Inhibition constant against serotonin transporter

[5] = biological target: T4, Peroxisome proliferator-activated receptor gamma (Homo sapiens, UniProt P37231)
T4 sequence (P37231 whole entry): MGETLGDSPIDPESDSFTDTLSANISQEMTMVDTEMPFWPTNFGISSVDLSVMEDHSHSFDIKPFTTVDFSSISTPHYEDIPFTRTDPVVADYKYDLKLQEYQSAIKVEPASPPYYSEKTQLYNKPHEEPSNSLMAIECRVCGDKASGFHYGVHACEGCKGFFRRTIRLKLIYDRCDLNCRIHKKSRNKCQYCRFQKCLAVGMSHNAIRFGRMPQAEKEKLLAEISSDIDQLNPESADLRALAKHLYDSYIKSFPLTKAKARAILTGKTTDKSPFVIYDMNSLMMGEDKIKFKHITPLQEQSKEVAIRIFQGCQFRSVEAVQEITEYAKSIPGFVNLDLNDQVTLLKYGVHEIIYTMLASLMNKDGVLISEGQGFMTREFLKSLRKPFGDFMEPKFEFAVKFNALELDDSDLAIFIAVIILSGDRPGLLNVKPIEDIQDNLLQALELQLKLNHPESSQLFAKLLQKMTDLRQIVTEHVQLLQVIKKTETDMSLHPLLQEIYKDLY
Description: Binding affinity towards peroxisome proliferator activated receptor gamma

[6] = biological target: T5, Peroxisome proliferator-activated receptor alpha (Homo sapiens, UniProt Q07869)
T5 sequence (Q07869 whole entry): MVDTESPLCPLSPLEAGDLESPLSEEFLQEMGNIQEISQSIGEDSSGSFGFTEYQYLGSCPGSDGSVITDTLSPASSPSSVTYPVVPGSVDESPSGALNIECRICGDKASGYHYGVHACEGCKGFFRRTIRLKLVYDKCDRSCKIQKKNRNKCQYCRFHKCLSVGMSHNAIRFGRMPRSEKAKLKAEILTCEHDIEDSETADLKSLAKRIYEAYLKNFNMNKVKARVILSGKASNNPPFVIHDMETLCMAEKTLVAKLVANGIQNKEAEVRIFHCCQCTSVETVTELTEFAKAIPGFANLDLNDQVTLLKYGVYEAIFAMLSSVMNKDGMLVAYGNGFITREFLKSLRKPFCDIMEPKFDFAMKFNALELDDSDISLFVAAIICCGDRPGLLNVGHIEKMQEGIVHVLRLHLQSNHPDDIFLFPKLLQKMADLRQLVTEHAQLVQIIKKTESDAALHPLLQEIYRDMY
Description: Binding affinity towards peroxisome proliferator activated receptor alpha

[7] = biological target: T6, Adrenergic receptor alpha-1 (Homo sapiens, UniProt P35348+P25100+P35368)
T6 sequence (P35348 whole entry): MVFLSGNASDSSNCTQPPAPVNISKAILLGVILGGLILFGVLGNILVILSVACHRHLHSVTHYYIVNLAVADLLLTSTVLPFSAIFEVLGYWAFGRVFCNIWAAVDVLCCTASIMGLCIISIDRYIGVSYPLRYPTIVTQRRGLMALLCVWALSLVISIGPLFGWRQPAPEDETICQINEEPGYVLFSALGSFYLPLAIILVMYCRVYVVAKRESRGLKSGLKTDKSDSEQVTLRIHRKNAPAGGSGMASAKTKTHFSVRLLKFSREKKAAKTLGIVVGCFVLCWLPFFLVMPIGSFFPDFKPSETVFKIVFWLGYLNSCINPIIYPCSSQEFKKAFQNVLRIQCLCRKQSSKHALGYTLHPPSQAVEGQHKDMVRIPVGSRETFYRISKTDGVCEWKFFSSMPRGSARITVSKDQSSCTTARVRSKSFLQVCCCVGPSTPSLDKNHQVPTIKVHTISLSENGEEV
T6 sequence (P25100 whole entry): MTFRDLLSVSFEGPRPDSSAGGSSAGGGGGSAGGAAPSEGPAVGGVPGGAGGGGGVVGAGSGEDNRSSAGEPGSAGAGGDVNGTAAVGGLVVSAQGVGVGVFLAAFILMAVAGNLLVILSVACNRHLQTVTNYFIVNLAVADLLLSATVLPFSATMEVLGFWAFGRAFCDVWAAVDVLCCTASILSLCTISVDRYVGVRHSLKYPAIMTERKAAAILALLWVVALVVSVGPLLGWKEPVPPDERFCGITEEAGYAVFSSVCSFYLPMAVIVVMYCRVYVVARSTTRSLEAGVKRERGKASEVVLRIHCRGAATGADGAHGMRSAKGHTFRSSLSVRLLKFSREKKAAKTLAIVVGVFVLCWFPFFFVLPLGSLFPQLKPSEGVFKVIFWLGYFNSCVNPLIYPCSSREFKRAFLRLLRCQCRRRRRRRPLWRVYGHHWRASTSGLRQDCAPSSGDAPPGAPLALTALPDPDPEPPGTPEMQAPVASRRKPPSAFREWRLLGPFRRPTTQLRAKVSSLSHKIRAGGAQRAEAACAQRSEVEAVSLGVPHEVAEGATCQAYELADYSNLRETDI
T6 sequence (P35368 whole entry): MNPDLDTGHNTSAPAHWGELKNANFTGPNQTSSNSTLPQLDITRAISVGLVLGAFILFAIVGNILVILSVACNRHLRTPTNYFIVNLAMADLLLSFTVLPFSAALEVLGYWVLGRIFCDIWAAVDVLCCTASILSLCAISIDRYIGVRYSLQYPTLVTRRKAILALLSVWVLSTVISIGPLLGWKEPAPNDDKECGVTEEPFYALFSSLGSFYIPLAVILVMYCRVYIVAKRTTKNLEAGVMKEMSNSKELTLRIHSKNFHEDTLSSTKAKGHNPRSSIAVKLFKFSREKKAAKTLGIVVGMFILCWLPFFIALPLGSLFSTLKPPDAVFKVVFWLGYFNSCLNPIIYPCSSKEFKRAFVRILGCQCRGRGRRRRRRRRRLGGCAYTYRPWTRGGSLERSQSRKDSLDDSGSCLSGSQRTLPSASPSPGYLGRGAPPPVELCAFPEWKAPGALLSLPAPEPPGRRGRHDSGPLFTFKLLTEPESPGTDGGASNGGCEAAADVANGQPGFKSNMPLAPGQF
Description: Inhibitory concentration against alpha adrenergic receptor

[8] = biological target: T3, Polyunsaturated fatty acid 5-lipoxygenase; test: Inhibitory concentration against arachidonate 5-lipoxygenase
Cyclooxygenase = Cyclooxygenase (Homo sapiens, UniProt P35354+P23219)
Description: Inhibitory concentration against prostaglandin G/H synthase

Substance-K receptor = biological target: T7, Substance-K receptor (Homo sapiens, UniProt P21452)
T7 sequence (P21452 whole entry): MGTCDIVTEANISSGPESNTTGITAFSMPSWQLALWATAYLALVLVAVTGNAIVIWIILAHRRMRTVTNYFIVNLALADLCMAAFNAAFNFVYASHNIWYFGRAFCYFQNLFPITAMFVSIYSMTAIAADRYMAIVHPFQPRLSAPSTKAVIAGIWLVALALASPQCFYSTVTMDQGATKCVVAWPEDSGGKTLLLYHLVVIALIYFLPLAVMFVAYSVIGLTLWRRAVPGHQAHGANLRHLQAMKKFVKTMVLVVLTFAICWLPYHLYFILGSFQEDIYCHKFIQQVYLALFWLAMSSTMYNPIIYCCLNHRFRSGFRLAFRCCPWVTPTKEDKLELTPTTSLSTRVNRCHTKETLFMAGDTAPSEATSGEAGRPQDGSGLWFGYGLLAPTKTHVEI
Description: Inhibitory concentration against tachykinin receptor 2

[9] = biological target: T1, Sodium-dependent serotonin transporter; test: Negative logarithm causing 50% receptor occupancy against serotonin transporter
[10] = biological target: T8, Peroxisome proliferator-activated receptor delta (Homo sapiens, UniProt Q03181)
T8 sequence (Q03181 whole entry): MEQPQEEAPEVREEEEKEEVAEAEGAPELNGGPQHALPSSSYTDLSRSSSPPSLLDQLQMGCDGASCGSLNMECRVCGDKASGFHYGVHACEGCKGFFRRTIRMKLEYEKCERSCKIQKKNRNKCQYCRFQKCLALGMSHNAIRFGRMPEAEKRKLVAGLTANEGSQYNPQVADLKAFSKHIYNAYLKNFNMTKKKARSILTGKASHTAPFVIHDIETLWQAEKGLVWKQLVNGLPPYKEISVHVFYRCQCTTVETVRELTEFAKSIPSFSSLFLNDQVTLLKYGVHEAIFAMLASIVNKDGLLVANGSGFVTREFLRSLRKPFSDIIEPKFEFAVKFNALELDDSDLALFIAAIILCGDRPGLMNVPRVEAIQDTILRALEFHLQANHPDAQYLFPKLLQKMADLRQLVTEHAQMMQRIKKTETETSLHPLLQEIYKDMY
Description: Binding affinity towards peroxisome proliferator activated receptor delta

[11] = biological target: T6, Adrenergic receptor alpha-1; test: Inhibition constant against alpha adrenergic receptor; type: protein assay

T1 sequence (P31645 whole entry): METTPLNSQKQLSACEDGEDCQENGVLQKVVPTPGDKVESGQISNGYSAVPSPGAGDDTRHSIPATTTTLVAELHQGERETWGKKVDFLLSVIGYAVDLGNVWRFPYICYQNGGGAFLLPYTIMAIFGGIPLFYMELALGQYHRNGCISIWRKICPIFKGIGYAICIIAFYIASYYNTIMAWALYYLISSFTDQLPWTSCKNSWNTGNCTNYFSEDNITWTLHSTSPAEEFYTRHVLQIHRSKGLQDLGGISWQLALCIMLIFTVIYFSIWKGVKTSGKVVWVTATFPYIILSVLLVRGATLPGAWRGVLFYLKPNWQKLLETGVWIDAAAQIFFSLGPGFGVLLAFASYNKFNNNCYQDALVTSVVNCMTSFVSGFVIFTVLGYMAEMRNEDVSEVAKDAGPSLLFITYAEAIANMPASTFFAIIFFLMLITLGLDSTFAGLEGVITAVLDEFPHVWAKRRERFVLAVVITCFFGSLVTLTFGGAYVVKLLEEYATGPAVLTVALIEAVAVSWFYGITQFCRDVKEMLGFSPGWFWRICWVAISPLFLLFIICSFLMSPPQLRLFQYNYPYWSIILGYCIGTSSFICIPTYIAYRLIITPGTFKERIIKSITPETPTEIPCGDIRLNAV

COc1cccc2c1CCCC2CN(C)CCc1cccc(F)c1 (stereo not given)
IC50 [1]: 160 nM
Ki [2]: 3.2 nM

Cc1c(O)c(C)c2sc(NCc3ccc(S(N)(=O)=O)cc3)nc2c1C
IC50 [3]: 230 nM

CN(C)CC(O)COc1cccc2[nH]ccc12 (stereo not given)
Ki [2]: 24 nM
Ki [4]: > 7000 nM

CCOC(Cc1ccc(OCCN(C)C2=Nc3ccccc3Sc3ccccc32)cc1)C(=O)O (stereo not given)
Kd [5]: 9800 nM
Kd [6]: 7500 nM

O=C(CN1CCN(Cc2ccc(Cl)cc2)CC1)N1CCc2ccccc21
IC50 [7]: 88 nM

COc1ccc(-n2nc(C#CC(C)N(O)C(C)=O)cc2-c2ccc(Cl)cc2)cc1 (stereo not given)
IC50 [8]: 110 nM
IC50 (Cyclooxygenase): 30 nM

CCN(CC)C(=O)[C@@]1(c2ccccc2)CC1CNCC(O)COc1cccc2[nH]ccc12 (stereo not given in full)
IC50 [1]: 120 nM
Ki [2]: 45 nM

CC(C)(C)c1cc(C(=O)c2cccs2)cc(C(C)(C)C)c1O [PRIFELONE]
IC50 [8]: 20000 nM
IC50 (Cyclooxygenase): 500 nM

COc1ccccc1CN[C@H]1C2CCN(CC2)[C@@H]1C(c1ccccc1)c1ccccc1
IC50 (Substance-K receptor): > 10000 nM

O=C1COc2ccc(OCCNCCCOc3cccc4[nH]ccc34)cc2N1
Ki [9]: 79.4 nM

CCO[C@@H](Cc1ccc(OCC=C(c2ccc(-c3ccccc3)cc2)c2ccc(-c3ccccc3)cc2)cc1)C(=O)O
Kd [5]: 300 nM
Kd [6]: 1100 nM
Kd [10]: 500 nM

CCO[C@@H](Cc1ccc(OCC=C(c2ccccc2)c2ccccc2)cc1)C(=O)O
Kd [5]: 2700 nM
Kd [6]: 6400 nM
Kd [10]: 5700 nM

CCO[C@@H](Cc1ccc(OCCn2c3ccccc3c3ccccc32)cc1)C(=O)O
Kd [5]: 170 nM
Kd [6]: 360 nM
Kd [10]: 3000 nM

CN1[C@@H]2CC[C@H]1C[C@@H](OC(=O)c1c[nH]c3ccccc13)C2 [TROPISETRON]
Ki [2]: 5.3 nM

CC(COc1ccc2c(c1)NC(=O)CO2)NCC(O)COc1cccc2[nH]ccc12 (stereo not given)
Ki [9]: 50.1 nM

O=C1Cc2cc(CCN3CCN(c4nsc5ccccc45)CC3)c(Cl)cc2N1 [ZIPRASIDONE]
IC50 [7]: 11 nM

CC(C)(C)c1cc(C=C2SC(N)=NC2=O)cc(C(C)(C)C)c1O
IC50 [8]: 770 nM
IC50 (Cyclooxygenase): 390 nM

C1=C(c2c[nH]c3ncccc23)CCN(CCOc2cccc3[nH]ccc23)C1
Ki [11]: 1 nM
Ki [4]: 1.5 nM

COc1cccc2c1CCCC2CN(C)CCc1ccc2c(c1)OCO2 (stereo not given)
IC50 [1]: 21 nM
Ki [2]: 6.7 nM

CN(C)C(=O)Oc1ccc2c(c1)C=CCN(C)[C@@H]2CCOc1ccc([N+](=O)[O-])cc1
IC50 [1]: 6 nM
